# Legend:
# Assay type in all cases: cell-based
# STAT1 = STAT1 assay (selectivity); conditions: Table 4
# Description: (§1) Compound samples (in 3-5 mg quantities) were evaluated in a variety of assays. All compound submissions were fully characterized (1H, 13C, IR, FIRMS), satisfied purity criteria (≥95% LC/MC, ELS).
# STAT3 = assay: HCS STAT3 assay; conditions: Table 4
# Description: as §1
# Cal33 cells = assay: Cal33 growth inhibition; conditions: Table 5; * average of 2 experiments
# Description: as §1
# 686LN = assay: Growth inhibition 686LN; conditions: Table 6; average of 2 experiments
# FADU = assay: Growth inhibition FADU; conditions: Table 6; average of 2 experiments
# OSC19 = assay: Growth inhibition OSC19; conditions: Table 6; average of 2 experiments
compound,measurement,setting,value
"1-(3-(6-(4-Methoxyphenyl)-7-methyl-7H-[1,2,4]triazolo[3,4-b][1,3,4]thiadiazin-3-yl)-5-phenyl-1H-pyrazol-1-yl)ethanone [8A]",IC50,STAT1,40.6 ± 7.5 µM
"1-(5-(6-(4-methoxyphenyl)-7-methyl-7H-[1,2,4]triazolo[3,4-b][1,3,4]thiadiazin-3-yl)-3-phenyl-1H-pyrazol-1-yl)ethanone [8B]",IC50,STAT3,3.7 µM
same,IC50,STAT1,> 50 µM
"COc1ccc(C2=Nn3c(nnc3-c3cc(-c4ccc(Cl)cc4)n[nH]3)S[C@@H]2C)cc1 (single isomer, unassigned; ent-1) [24 (ent-1)]",GI50,Cal33 cells,2.7 µM
CC1Sc2nnc(-c3cc(-c4ccccc4)n[nH]3)n2N=C1c1ccccc1 (stereo not shown) [compound 21],GI50,686LN,32.2 µM
same,GI50,FADU,32.7 µM
same,GI50,OSC19,31.3 µM

# — patent US11111253B2, “6-aryl-7-substituted-3-(1H-pyrazol-5-yl)-7H-[1,2,4]triazolo[3,4-b][1,3,4]thiadiazines as inhibitors of the STAT3 pathway with anti-proliferative activity” (UNIVERSITY OF PITTSBURGH—OF THE COMMONWEALTH SYSTEM OF …, priority 2015, dated 2021)
